Measurements as given in patent US8361734B2, “Xanthurenic acid derivative pharmaceutical compositions and methods related thereto” (Naturon, Inc., priority 2004, dated 2013).

Columns and labels:
Type in all cases: in vivo
[1] = test system: uremic Sprague Dawley rat; assay: Natriuretic response (Na+ and K+ urine excretion) after i.v. administration in a uremic Sprague Dawley rat
Source text: Female Sprague-Dawley rat, weighing 225 g, was made uremic by tying off one kidney and 30-50% of the second kidney. Two weeks later the rat was ready to test for natriuretic activity. The rat was anesthetized lightly with ether and a tail vein catheter was placed using PE10 tubing. Additionally, a urethra catheter was inserted using KY jelly and 2% lidocaine as a lubricant. The rat was restrained in a modified Plexiglas tube so that urine could be collected in 1.5-mL microcentrifuge tubes. Saline infusion started at time zero at 0.02 mL/min for the length of the assay. The same i.v. catheter was used to inject isolated xanthurenic acid 8-O-β-glucoside at the time indicated in a 1-mL volume in saline over the course of 10 minutes. […] The tubes were centrifuged at 14,000 rpm to separate any RBC's from the urine. Na^+ and K^+ concentrations in the urine were measured with respective ion selective electrodes. The Na^+ and K^+ excretion rates were calculated by: (vol of urine/time of collection period)×(ion urine concentration).
A female Sprague-Dawley rat, weighing 225 g, was made uremic by tying off one kidney and 30-50% of the second kidney. Two weeks later the rat was ready to test for natriuretic activity. The rat was anesthetized lightly with ether and a tail vein catheter was placed using PE10 tubing. Additionally, a urethra catheter was inserted using KY jelly and 2% lidocaine as a lubricant. The rat was restrained in a modified Plexiglas tube so that urine could be collected in 1.5-mL microcentrifuge tubes. Saline infusion started at time zero at 0.02 mL/min for the length of the assay. The same i.v. catheter was used to inject the test compound. Isolated xanthurenic acid 8-O-sulfate, 2 μg, was injected at the time indicated in a 1 mL volume in saline over the course of 10 minutes. Then saline infusion was returned to 0.02 mL/min for the duration of the assay. The tubes were centrifuged at 14,000 rpm to separate any RBC's from the urine. Na^+ and K^+ concentrations in the urine were measured with respective ion selective electrodes. The Na^+ and K^+ excretion rates were calculated by: (vol of urine/time of collection period)×(ion urine concentration).

[2] = test system: normal Sprague Dawley rat; assay: Natriuretic response (Na+ and K+ urine excretion) after oral administration in a normal Sprague Dawley rat
Procedure: A female Sprague Dawley rat (250 g) was anesthetized lightly with ether and a urethra catheter was inserted using KY jelly and 2% lidocaine as a lubricant. The rat was restrained in a modified Plexiglas tube so that urine could be collected in 1.5-mL microcentrifuge tubes. No saline infusion was administered. Synthetic xanthurenic acid 8-O-β-D-glucoside was injected with a feeding needle at the time indicated in a 1-mL volume of water over the course of 1 minute. […] The tubes were centrifuged at 14,000 rpm to separate any RBC's from the urine. Na^+ and K^+ concentrations in the urine were measured with respective ion selective electrodes. The Na^+ and K^+ excretion rates were calculated by: (vol of urine/time of collection period)×(ion urine concentration).
A female Sprague Dawley rat (250 g) was anesthetized lightly with ether and a urethra catheter was inserted using KY jelly and 2% lidocaine as a lubricant. The rat was restrained in a modified Plexiglas tube so that urine could be collected in 1.5-mL microcentrifuge tubes. No saline infusion was administered. Xanthurenic acid 8-O-sulfate was injected with a feeding needle at the time indicated in a 1-mL volume of water over the course of 1 minute. The tubes were centrifuged at 14,000 rpm to separate any RBC's from the urine. Na^+ and K^+ concentrations in the urine were measured with respective ion selective electrodes. The Na^+ and K^+ excretion rates were calculated by: (vol of urine/time of collection period)×(ion urine concentration).

[3] = test system: normal Sprague Dawley rat; assay: Natriuretic response (Na+ and K+ urine excretion) after i.v. administration in a normal Sprague Dawley rat; conditions: for natriuretic response (Na+ excretion): 2 μg i.v., FIGS. 1-4
Procedure: A female Sprague Dawley rat (250 g) was anesthetized lightly with ether and a tail vein catheter was placed using PE10 tubing. Additionally, a urethra catheter was inserted using KY jelly and 2% lidocaine as a lubricant. The rat was restrained in a modified Plexiglas tube so that urine could be collected in 1.5-mL microcentrifuge tubes. Saline infusion started at time zero at 0.02 mL/min for the duration of the assay. The same i.v. catheter was used to inject the test compound. Synthetic xanthurenic acid 8-O-β-D-glucoside, 2 μg, was injected at the time indicated in a 1-mL volume in saline over the course of 10 minutes. The tubes were centrifuged at 14,000 rpm to separate any RBC's from the urine. Na^+ and K^+ concentrations in the urine were measured with respective ion selective electrodes. The Na^+ and K^+ excretion rates were calculated by: (vol of urine/time of collection period)×(ion urine concentration). […] Given an extracellular volume of 50 mL in a 250-g rat, the concentration of the test compound was […], a possible minimum dose.
A female Sprague Dawley rat (250 g) was anesthetized lightly with ether and a tail vein catheter was placed using PE10 tubing. Additionally, a urethra catheter was inserted using KY jelly and 2% lidocaine as a lubricant. The rat was restrained in a modified Plexiglas tube so that urine could be collected in 1.5-mL microcentrifuge tubes. Saline infusion started at time zero at 0.02 mL/min for the length of the assay. The same i.v. catheter was used to inject the test compound. Synthetic xanthurenic acid 8-O-β-D-glucoside, 10 μg i.v. was injected at the time indicated in a 1-mL volume in saline over the course of 10 minutes. At the indicated time the saline infusion was increased tenfold to 0.2 mL/min for ten minutes and returned to 0.02 mL/min for the duration of the assay. The tubes were centrifuged at 14,000 rpm to separate any RBC's from the urine. Na^+ and K^+ concentrations in the urine were measured with respective ion selective electrodes. The Na^+ and K^+ excretion rates were calculated by: (vol of urine/time of collection period)×(ion urine concentration).

[4] = i.v. administered sulfate, FIG. 19

Structure (SMILES): O=C(O)c1cc(=O)c2cccc(OS(=O)(=O)O)c2[nH]1 [xanthurenic acid 8-O-sulfate, Xanthurenic Acid 8-O-sulfate]
- Na+ urine concentration after the increase [1, 4]: 160 mM
- Na+ urine concentration before the increase [1, 4]: 60 mM
- time until natriuresis approached control levels ([1]; isolated sulfate 2 μg i.v., uremic rat): ≤ 70 min
- natriuretic response ([1]; isolated sulfate 2 μg i.v., uremic rat, FIGS. 17-20): caused sustained natriuretic response
- time to peak of natriuresis ([1]; isolated sulfate 2 μg i.v., uremic rat, FIGS. 17 and 18): ≤ 30 min
- K+ excretion ([1]; isolated sulfate 2 μg i.v., uremic rat, FIGS. 18 and 19): did not increase
- Na+ urine concentration ([2]; 20 ug oral, synthetic sulfate, normal rat): below 50 mM
- natriuretic response ([2]; 20 ug oral, synthetic sulfate, normal rat, FIGS. 21-24): not orally active

Structure (SMILES): O=C(O)c1cc(=O)c2cccc(O[C@@H]3OC(CO)[C@@H](O)[C@H](O)C3O)c2[nH]1 (stereo partly drawn) [xanthurenic acid 8-O-β-D-glucoside, Xanthurenic acid 8-O-β-D-glucoside]
- time of peak Na+ excretion ([1]; isolated glucoside 3 μg i.v., uremic rat, FIG. 13): 70 min
- natriuretic response ([1]; isolated glucoside 3 μg i.v., uremic rat, FIGS. 13-16): caused a sustained natriuretic response
- K+ excretion ([1]; isolated glucoside 3 μg i.v., uremic rat, FIGS. 14 and 15): did not increase
- K+ excretion after furosemide ([1]; pretreatment with isolated glucoside 3 μg i.v. followed by furosemide 20 ug i.v., uremic rat, FIGS. 14 and 15): prevented the typical increase in K^+ excretion
- natriuretic response (Na+ excretion) ([3]; synthetic compound, normal rat): caused a sustained natriuretic response
- Na+ excretion rate before increase of saline infusion ([3]; 10 μg i.v., saline 0.02 mL/min, FIG. 6): 2 uEq/min
- Na+ excretion rate after saline infusion increased tenfold ([3]; 10 μg i.v., saline 0.2 mL/min for 10 minutes, FIG. 6): 10 uEq/min
- time after administration at which urine production decreased ([3]; 10 μg i.v., saline infusion 0.02 mL/min): 140 min
- K+ excretion ([3]; 10 μg i.v., synthetic compound, normal rat): did not increase
- natriuretic response ([3]; 10 μg i.v., synthetic compound, normal rat, FIGS. 5-8): caused a sustained natriuretic response
- natriuresis ([3]; synthetic glucoside given subsequently to xanthurenic acid 2 ug i.v., normal rat): did cause natriuresis
- natriuretic response ([2]; 10 μg oral, synthetic compound, normal rat, FIGS. 9-12): orally active
- Na+ urine concentration reached ([2]; glucoside oral, normal rat, FIG. 11): 160 mM
- K+ excretion ([2]; pretreatment with glucoside 10 μg oral followed by furosemide 100 μg oral, FIG. 10): did not increase K^+ excretion
- furosemide-induced K+ excretion ([2]; pretreatment with glucoside 10 μg oral, furosemide 100 μg oral): inhibited

Structure (SMILES): O=C(O)c1cc(O)c2cccc(O)c2n1 [xanthurenic acid]
- natriuretic response (Na+ excretion) ([3]; synthetic compound, normal rat): did not increase Na^+ excretion
